Assays:
a-1.4-GalT = assay: Titration of C-glycosidic fluorophore 2 with GalT and competition with ligands; assay type: binding
[1] = Quantum yield determination of nucleotide derivatives; assay type: physicochemical; settings: for Q.Y.: in water; for Quantum yield of reference compounds determined with this protocol: in H2O
Description: Nucleotide derivatives were serially diluted in H2O (10, 20, 30, 40 and 50 μM for absorbance measurements, and 0.2, 0.4, 0.6, 0.8, 1 μM for fluorescence measurements), and UV absorbance and fluorescence emission (with λmax absorbance=λem fluorescence) were recorded for all samples. To determine quantum yields, for each absorbance and fluorescence spectrum the area under the curve (AUC) was calculated by numerical integration, applying the mid-point rule. For each compound, AUCabs and AUCem were then plotted over compound concentration according to AUCabs=A×[conc]+B and AUCem=A′×[conc]+B′. From these linear plots, the gradients A and A′ were extracted, and for each compound the specific quantum yield φs, under these experimental conditions, was calculated as the ratio A′/A. Quantum yields determined with this protocol for two reference compounds, 2-aminopyridine and L-tryptophan (2-aminopyridine: 0.60; L-tryptophan: 0.14) were in exact agreement with literature values. The quantum yields for reference compounds were used to calculate the general quantum yield φg for each nucleotide analogue, according to φg=φref×(A′/A)/(A′/A)ref.
Fluorescent uracil nucleosides and (sugar-)nucleotides can be obtained by connecting a known chromophore/fluorophore via an electronically nonconjugating linker to the natural uracil base (Sinkeldam et al. Chem. Rev. 2010, 110, 2579-2619). The photophysical features of the resulting nucleoside/(sugar-)nucleotide analogue are usually very similar to that of the parent fluorophore (Sinkeldam et al. Chem. Rev. 2010, 110, 2579-2619). In contrast, extending the uracil by electronically conjugating the base to additional aromatic moieties typically generates a new chromophore with unique, and somewhat unpredictable, photophysical characteristics (Sinkeldam et al. Chem. Rev. 2010, 110, 2579-2619). To precisely measure the intensity of the fluorescence emitted by the brightest fluorophores described above, we determined their quantum yield. These measurements were performed in water following the procedure reported by Nighswander-Remper and the results are shown in Table B below. Quantum yield determinations confirmed that 2p and 2q display the highest fluorescence and are 10-fold brighter than any other nucleotide analogues with a compact aryl- or heteroaryl substituent in position 5 that have been reported to date (Sinkeldam et al. Chem. Rev. 2010, 110, 2579-2619). That 2p and 2q absorb and fluoresce at long wavelength is an attractive feature, which makes these fluorophores suitable for analyses in biological environments. Additionally, we found the intensity of the fluorescence emission is conserved for UDP and UTP analogues, thereby providing attractive fluorescence probes candidates for fluorimetric assays.

[2] = Absorbance and fluorescence spectra of 5-R-UMP analogues; assay type: physicochemical; settings: for λmax: absorbance
Description: UV absorbance spectra were recorded on a PerkinElmer Lambda 25 UV-Vis spectrometer at ambient temperature in FarUV quartz cells (path length 1.0 cm). Fluorescence spectra were recorded on a PerkinElmer LS-45 spectrometer at ambient temperature in a quartz micro fluorescence cell (path length 1.0 cm).

Ggta1 = target: T1, Ggta1 (Bos taurus, UniProt P14769); assay: Variation in fluorescence of 3d and analogues upon incubation with Ggta1; assay type: binding, B. taurus; settings: various concentrations of Ggta1
T1 construct: made in house
T1 sequence (P14769 whole entry): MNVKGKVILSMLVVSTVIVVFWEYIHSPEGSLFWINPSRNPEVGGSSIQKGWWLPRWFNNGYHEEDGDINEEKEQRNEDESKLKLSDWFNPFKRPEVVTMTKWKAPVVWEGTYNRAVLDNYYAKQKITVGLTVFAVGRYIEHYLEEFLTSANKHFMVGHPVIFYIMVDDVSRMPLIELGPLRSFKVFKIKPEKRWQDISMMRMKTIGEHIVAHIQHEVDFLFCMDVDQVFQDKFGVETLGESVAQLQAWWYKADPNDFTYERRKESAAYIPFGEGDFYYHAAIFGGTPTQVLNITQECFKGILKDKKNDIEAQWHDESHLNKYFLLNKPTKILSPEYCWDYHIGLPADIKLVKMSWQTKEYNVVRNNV
Description: (§1) Fluorescence intensity measurements with 3d were carried out in black NUNC F96 MicroWell polystyrene plates on a BMG labtech PolarStar microplate reader equipped with a 350±5 nm excitation filter and a 430±5 nm emission filter. The number of flashes per wells was set to 50 (gain: 2240; position delay: 0.2 s). Prior to readings, plates were incubated, with shaking, for 10 min at 30° C. (double orbital, shaking width 4 mm, 10 seconds). Results were visualised with BMG labtech data analysis software Mars 1.10 and analysed with GraFit version 5.0.10.
(§2) Samples were pipetted into the requisite wells of a black NUNC 96-well plate as shown in tables E1-E3, at the end of the description. Key: B—Tris/HCl buffer (50 mM, pH 7; 40 μL); F—fluorophore 3d (200 nM in Tris/HCl buffer; 40 μL); M—MnCl2 (10 mM in Tris/HCl buffer; […]); E—galactosyltransferase (in Tris/HCl buffer; 40 μL); I—inhibitor (in Tris/HCl buffer; 40 μL). Total volume/well: 200 μL. All experiments were carried out in triplicate, unless indicated otherwise.
We also carried out an experiment on 3d (numbered 18e in FIG. 4) and different analogues of 3d, namely the nucleoside 5h, the nucleotide 6r and nucleoside diphosphate 22d, to show their variation in fluorescence on binding to Ggta1.
The synthesis of 5h, 6r and 22d are shown below. The protocol for the microplate/fluorescence experiments was the same as in Example 2.

[3] = target: T2, Streptococcus thermophilus UDP-Gal 4′-epimerase (GalE) (Streptococcus thermophilus, UniProt P21977); assay: GalE-catalysed conversion of UDP-Gal into UDP-Glc, HPLC assay; assay type: biochemical
T2 construct: purchased Calbiochem
T2 sequence (P21977 whole entry): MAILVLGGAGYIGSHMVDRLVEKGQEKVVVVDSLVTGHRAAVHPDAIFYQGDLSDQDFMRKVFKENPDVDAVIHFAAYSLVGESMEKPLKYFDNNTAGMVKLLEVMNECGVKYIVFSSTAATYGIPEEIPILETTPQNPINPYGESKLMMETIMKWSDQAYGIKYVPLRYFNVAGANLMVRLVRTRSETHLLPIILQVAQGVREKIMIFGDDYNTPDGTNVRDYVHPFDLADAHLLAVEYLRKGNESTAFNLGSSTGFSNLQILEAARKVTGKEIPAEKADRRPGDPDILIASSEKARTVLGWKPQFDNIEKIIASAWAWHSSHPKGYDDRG
Description: The reactions were stopped by cooling in dry ice. […] Km and vmax values were determined by fitting data points to a Michaelis-Menten curve using GraFit 5.0.10. […] All experiments were carried out in triplicate.

[4] = Influence of microenvironment (solvent) on fluorescence of 2q′; assay type: physicochemical
Description: Fluorescence intensity measurements were performed in NUNC F96 MicroWell polystyrene plates on a BMG labtech PolarStar plate reader equipped with a 350±5 nm absorbance filter and with a 430±5 nm emission filter. 10 μM solutions of 2q′ were prepared in HPLC grade water, acetonitrile and isopropanol. Sample assays with various solvent mixtures were incubated during 2 minutes at 30° C. prior to fluorescence measurement. Data were analysed with the help of GraFit version 5.0.10.
After identifying intense 5-arylated UMP fluorophores and understanding the origin of their fluorescence we investigated the influence of the microenvironment on the fluorescence signal. In order to generate a variety of microenvironments, we prepared 200 nM solutions of 5-(5-formyl-2-thiophene)-uridine 2q′ (the nucleoside analogue of 2q) in solvents varying in polarity index: (P): water (P=9), acetonitrile (MeCN, P=5.8) and isopropanol (IPA, P=3.9). We subsequently recorded absorbance and fluorescence signals for these three solutions (see FIG. 6).

B. taurus α-1,3-GalT [5] = target: T3, B. taurus α-1,3-GalT (Bos taurus, UniProt P14769); assay: Donor kinetics of UDP-Gal derivatives with GalT, HPLC; assay type: biochemical; settings: MnCl2 20 mM, MOPS pH 7.2, 37° C.
T3 construct: made in house
T3 sequence (P14769 whole entry): as the sequence (P14769 whole entry) above
Description: J. Am. Chem. Soc. 122, 261-1269 (2000); Rich, J. R.; Szpacenko, A.; Palcic, M. M. & Bundle, D. R. Glycosyltransferase-Catalyzed Synthesis of Thiooligosaccharides. Angew. Chem. Int. Ed. […] ChemBioChem 9, 1632-1640 (2008). […] (total volume 100 μL, all concentrations are final concentrations). The reactions were stopped by cooling in dry ice. Samples were analysed immediately by HPLC on a PerkinElmer Series 200 machine equipped with a Supelcosil LC-18-T column (5 μm, 25 cm×4.6 mm), a column oven (set to 30° C.), and a diode array detector. Each sample (injection volume 40 μL) was eluted at 1.5 mL/min with a gradient of methanol (10-30%) against 0.5 M phosphate buffer (adjusted to pH 8 with triethylamine). […] Km and vmax values were determined by fitting data points to a Michaelis-Menten curve using GraFit 5.0.10.

B. taurus α-1,3-GalT [6] = target: T3, B. taurus α-1,3-GalT; assay: Microplate fluorescence titration / ligand-displacement assay with fluorophore 3d; assay type: binding
Description: The fluorescence emission of a given fluorophore is influenced by its microenvironment, although different fluorophores vary their fluorescence emissions to different extents on changing microenvironment.
as §1, §2

β4GalT (H. pylori) = assay: Titration of 3d with other GTs; assay type: binding
Description: as §1, §2
(§3) To assess the generality of this new GT assay principle, we next repeated the above experiments with another four GalTs, including mammalian and bacterial enzymes with different acceptor specificities and reaction mechanisms. […] The experimental protocol was the same as in Example 2. The amino acid sequences for four GalTs used in the experiment, i.e. LgtC (N. meningitidis), Ggta1 (B. taurus), GTB (H. sapiens) and AA(Gly)B GTB mutant (H. sapiens) or references where the sequence listings can be found are given above. The amino acid sequence for β4GalT (H. pylori) can be found above and in the following reference: Endo, T., Koizumi, S., Tabata, K. & Ozaki, A. Glycobiology 10, 809-813 (2000).

GTB (H. sapiens) = assay: Titration of 3d with other GTs; assay type: binding
Description: as §1, §2, §3

LgtC (N. meningitidis) = assay: Titration of 3d with other GTs; assay type: binding
Description: as §1, §2, §3

[7] = tested on: AA(Gly)B GTB mutant (H. sapiens); assay: Titration of 3d with other GTs; assay type: binding
Description: as §1, §2, §3

[8] = Quantum yield determination of UDP-Gal derivatives 3a-d; assay type: physicochemical
Description: To determine quantum yields, for each absorbance and fluorescence spectrum the area under the curve (AUC) was calculated by numerical integration, applying the mid-point rule. For each compound, AUCabs and AUCfluo were then plotted over compound concentration according to AUCabs=A×[conc]+B (equation 1) and AUCfluo=A′×[conc]+B′ (equation 2). […] The quantum yields for reference compounds were used to calculate the general quantum yield φg for each compound 3a-d, according to φg=φref×(A′/A)/(A′/A)ref.

[9] = Lakowicz, Principles of Fluorescence Spectroscopy; cited from earlier work

## O=c1ccn([C@@H]2O[C@H](COP(=O)(O)O)[C@@H](O)[C@H]2O)c(=O)[nH]1 [UMP, reference compound]
a-1.4-GalT
  Reversal of fluorescence quenching of 2 by titration with ligand: to a lesser extent
[1]
  Q.Y.: 5e-05
[2]
  λmax: 262 nm

## O=Cc1ccc(-c2cn([C@@H]3O[C@H](COP(=O)(O)OP(=O)(O)O)[C@@H](O)[C@H]3O)c(=O)[nH]c2=O)s1 [22d, 5-(5-Formylthien-2-yl)-UDP]
Ggta1
  Variation in fluorescence on binding to Ggta1: varied their intensity of luminescence with Ggta1

## O=Cc1ccc(-c2cn([C@@H]3O[C@H](COP(=O)(O)OP(=O)(O)CC[C@H]4O[C@H](CO)[C@H](O)[C@H](O)[C@H]4O)[C@@H](O)[C@H]3O)c(=O)[nH]c2=O)s1 [compound 2, Bis(sodium) [2-(α-D-galactopyranosyl)-ethylphosphono]-5-(5-formylthien-2-yl)uridin-5′-yl phosphate]
a-1.4-GalT
  Fluorescence of 2 upon titration with GalT: quenched upon titration with a bacterial GalT
[3]; Dixon plot, 232 μM UDP-Gal
  Ki: 426 µM
[3]; co-incubation, HPLC
  Use as substrate by GalE: does not use 2 as a substrate

## O=Cc1ccc(-c2cn([C@@H]3O[C@H](CO)[C@@H](O)[C@H]3O)c(=O)[nH]c2=O)s1 [2q′, 5-(5-Formylthien-2-yl)-uridine]
[4]; 200 nM solutions
  Fluorescence in water relative to MeCN: 20 fold
[4]; water, MeCN, IPA
  Absorbance on change of solvent: unaffected by a change in microenvironment

## O=Cc1ccc(-c2cn([C@@H]3O[C@H](COP(=O)(O)O)[C@@H](O)[C@H]3O)c(=O)[nH]c2=O)s1 [2q, 5-(5-Formylthien-2-yl)-uridine-5′-monophosphate]
Ggta1
  Variation in fluorescence on binding to Ggta1: varied their intensity of luminescence with Ggta1
[1]
  Brightness relative to any other reported 5-aryl/heteroaryl nucleotide analogues: 10 fold
  Q.Y.: 0.26
[2]; 100 μM
  Fluo Intensity at 100 μM: >650 a.u.
[2]
  λmax: 351 nm
[2]; fluorescence emission
  Emmax: 434 nm

## O=Cc1ccc(-c2cn([C@@H]3O[C@H](COP(=O)(O)OP(=O)(O)O[C@H]4O[C@H](CO)[C@H](O)[C@H](O)[C@H]4O)[C@@H](O)[C@H]3O)c(=O)[nH]c2=O)s1 [3d, 5-(5-Formylthien-2-yl)-UDP-α-D-galactose]
B. taurus α-1,3-GalT [5]
  Km: 13 ± 1 µM
  kcat: 0.0019 s⁻¹
B. taurus α-1,3-GalT [6]; in the absence of Mn^2+
  Fluorescence of 3d upon titration with enzyme: little or no fluorescence quenching
B. taurus α-1,3-GalT [6]; in the presence of MnCl2, 200 nM ligand, Tris pH 7
  Fluorescence of 3d upon titration with enzyme: quenched in the presence of enzyme in a concentration-dependent manner
Ggta1
  Variation in fluorescence on binding to Ggta1: varied their intensity of luminescence with Ggta1
β4GalT (H. pylori)
  Fluorescence of 3d with enzyme: strong fluorescence quenching effect
GTB (H. sapiens)
  Fluorescence of 3d with enzyme: strong fluorescence quenching effect
LgtC (N. meningitidis)
  Fluorescence of 3d with enzyme: strong fluorescence quenching effect
[7]
  Fluorescence of 3d with enzyme: strong fluorescence quenching effect
[8]
  Fluorescence (in words): much more strongly fluorescent
  Quantum yield relative to that of 3a: 25 fold
  Quantum yield relative to that of the parent UDP-Gal: ~6000 fold
[8]; in H2O
  Quantum yield: 0.26

## O=c1ccn([C@@H]2O[C@H](COP(=O)(O)OP(=O)(O)O)[C@@H](O)[C@H]2O)c(=O)[nH]1 [UDP, reference compound]
a-1.4-GalT
  Reversal of fluorescence quenching of 2 by titration with ligand: reversed
B. taurus α-1,3-GalT [6]; 3d and α-1.3-GalT present
  Fluorescence of 3d upon titration with competitive ligand: restored

## Nc1ccccn1 [2-aminopyridine, reference compound]
[9]
  Quantum yield, literature values of reference compounds: 0.60
[1]
  Quantum yield of reference compounds determined with this protocol: 0.60

## N[C@@H](Cc1c[nH]c2ccccc12)C(=O)O [L-tryptophan, reference compound]
[9]
  Quantum yield, literature values of reference compounds: 0.14
[1]
  Quantum yield of reference compounds determined with this protocol: 0.14

From patent publication US9018370B2, “Derivatives of uridine phosphate and their uses in protein binding assays” (King's College London of Strand, priority 2009, dated 2015)
